For one molecule, EC50 results are on record in PMC5007619 (Biochemistry, 2016).

The target in one experiment is p300 (Homo sapiens, UniProt Q09472). Kind of experiment: […]acetyl-CoA nucleosome acetyltransferase assay. Type of experiment: biochemical.
The target in the next experiment is CBP (Homo sapiens, UniProt Q92793). In words: H3K18ac Western blot of nucleosome acetylation by purified CBP. Type of experiment: biochemical. (In general: A western blot detects proteins with antibodies after separation by electrophoresis.)

For orientation: EC50 means the concentration giving half of the maximal effect.

Sequence of p300 (Q09472 2-2414): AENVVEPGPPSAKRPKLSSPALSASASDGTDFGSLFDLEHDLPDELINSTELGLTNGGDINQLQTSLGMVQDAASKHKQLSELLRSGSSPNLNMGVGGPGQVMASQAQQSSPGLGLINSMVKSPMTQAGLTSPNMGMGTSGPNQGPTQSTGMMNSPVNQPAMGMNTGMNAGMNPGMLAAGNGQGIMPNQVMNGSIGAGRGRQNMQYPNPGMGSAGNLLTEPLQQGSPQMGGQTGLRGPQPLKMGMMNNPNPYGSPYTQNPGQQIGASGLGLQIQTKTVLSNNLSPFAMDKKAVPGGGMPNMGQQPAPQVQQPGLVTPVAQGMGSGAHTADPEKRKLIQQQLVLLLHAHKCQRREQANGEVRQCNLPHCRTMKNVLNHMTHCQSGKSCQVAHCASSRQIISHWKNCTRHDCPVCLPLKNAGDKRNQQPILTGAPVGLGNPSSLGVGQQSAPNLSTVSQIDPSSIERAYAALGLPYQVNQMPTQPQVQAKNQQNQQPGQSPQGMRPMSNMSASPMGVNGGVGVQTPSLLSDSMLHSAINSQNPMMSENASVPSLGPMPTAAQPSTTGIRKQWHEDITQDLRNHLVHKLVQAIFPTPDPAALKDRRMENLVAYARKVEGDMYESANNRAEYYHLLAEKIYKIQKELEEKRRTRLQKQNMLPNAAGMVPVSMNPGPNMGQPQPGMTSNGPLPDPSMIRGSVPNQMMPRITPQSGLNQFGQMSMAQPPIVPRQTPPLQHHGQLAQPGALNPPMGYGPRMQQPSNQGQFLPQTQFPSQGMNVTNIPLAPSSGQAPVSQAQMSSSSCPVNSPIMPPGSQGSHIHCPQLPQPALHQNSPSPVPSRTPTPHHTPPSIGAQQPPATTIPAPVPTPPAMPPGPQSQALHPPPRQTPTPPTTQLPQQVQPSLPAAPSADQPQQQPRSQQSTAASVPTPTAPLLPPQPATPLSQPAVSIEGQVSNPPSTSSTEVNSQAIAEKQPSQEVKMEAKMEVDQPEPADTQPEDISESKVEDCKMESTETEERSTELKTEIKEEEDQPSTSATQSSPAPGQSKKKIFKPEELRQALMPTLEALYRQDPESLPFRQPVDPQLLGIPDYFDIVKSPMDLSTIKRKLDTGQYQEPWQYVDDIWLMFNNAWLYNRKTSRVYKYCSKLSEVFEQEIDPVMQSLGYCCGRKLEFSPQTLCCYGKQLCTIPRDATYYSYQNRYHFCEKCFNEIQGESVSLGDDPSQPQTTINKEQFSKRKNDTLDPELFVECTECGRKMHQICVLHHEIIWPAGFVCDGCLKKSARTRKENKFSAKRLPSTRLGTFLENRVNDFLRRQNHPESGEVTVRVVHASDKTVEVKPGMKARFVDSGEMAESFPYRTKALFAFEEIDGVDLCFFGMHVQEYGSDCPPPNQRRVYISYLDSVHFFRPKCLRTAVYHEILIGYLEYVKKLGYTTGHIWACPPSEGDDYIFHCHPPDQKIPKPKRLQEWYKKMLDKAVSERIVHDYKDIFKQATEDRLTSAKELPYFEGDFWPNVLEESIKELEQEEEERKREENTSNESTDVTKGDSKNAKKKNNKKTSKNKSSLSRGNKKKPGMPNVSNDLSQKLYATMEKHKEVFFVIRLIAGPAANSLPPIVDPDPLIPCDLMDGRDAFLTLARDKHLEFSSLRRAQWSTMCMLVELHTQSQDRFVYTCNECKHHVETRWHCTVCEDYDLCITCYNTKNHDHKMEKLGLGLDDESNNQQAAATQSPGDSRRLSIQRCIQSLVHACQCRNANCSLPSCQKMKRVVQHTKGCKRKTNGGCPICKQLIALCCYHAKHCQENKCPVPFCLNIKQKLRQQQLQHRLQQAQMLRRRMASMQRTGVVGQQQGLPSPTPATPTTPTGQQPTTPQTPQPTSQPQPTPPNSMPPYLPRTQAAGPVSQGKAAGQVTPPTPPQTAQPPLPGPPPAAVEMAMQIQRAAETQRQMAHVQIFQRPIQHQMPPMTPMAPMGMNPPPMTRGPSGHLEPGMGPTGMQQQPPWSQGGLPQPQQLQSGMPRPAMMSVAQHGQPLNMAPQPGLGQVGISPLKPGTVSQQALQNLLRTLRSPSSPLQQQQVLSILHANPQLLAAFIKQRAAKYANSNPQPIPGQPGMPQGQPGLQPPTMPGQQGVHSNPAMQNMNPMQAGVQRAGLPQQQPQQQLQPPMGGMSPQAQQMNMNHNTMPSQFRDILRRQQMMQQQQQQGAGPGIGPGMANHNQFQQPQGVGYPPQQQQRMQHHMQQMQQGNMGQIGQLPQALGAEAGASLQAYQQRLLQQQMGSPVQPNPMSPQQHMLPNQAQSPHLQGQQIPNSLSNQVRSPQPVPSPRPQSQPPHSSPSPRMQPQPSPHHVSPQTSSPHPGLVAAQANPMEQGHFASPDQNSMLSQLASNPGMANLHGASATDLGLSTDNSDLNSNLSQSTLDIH
Sequence of CBP (Q92793 2-2442): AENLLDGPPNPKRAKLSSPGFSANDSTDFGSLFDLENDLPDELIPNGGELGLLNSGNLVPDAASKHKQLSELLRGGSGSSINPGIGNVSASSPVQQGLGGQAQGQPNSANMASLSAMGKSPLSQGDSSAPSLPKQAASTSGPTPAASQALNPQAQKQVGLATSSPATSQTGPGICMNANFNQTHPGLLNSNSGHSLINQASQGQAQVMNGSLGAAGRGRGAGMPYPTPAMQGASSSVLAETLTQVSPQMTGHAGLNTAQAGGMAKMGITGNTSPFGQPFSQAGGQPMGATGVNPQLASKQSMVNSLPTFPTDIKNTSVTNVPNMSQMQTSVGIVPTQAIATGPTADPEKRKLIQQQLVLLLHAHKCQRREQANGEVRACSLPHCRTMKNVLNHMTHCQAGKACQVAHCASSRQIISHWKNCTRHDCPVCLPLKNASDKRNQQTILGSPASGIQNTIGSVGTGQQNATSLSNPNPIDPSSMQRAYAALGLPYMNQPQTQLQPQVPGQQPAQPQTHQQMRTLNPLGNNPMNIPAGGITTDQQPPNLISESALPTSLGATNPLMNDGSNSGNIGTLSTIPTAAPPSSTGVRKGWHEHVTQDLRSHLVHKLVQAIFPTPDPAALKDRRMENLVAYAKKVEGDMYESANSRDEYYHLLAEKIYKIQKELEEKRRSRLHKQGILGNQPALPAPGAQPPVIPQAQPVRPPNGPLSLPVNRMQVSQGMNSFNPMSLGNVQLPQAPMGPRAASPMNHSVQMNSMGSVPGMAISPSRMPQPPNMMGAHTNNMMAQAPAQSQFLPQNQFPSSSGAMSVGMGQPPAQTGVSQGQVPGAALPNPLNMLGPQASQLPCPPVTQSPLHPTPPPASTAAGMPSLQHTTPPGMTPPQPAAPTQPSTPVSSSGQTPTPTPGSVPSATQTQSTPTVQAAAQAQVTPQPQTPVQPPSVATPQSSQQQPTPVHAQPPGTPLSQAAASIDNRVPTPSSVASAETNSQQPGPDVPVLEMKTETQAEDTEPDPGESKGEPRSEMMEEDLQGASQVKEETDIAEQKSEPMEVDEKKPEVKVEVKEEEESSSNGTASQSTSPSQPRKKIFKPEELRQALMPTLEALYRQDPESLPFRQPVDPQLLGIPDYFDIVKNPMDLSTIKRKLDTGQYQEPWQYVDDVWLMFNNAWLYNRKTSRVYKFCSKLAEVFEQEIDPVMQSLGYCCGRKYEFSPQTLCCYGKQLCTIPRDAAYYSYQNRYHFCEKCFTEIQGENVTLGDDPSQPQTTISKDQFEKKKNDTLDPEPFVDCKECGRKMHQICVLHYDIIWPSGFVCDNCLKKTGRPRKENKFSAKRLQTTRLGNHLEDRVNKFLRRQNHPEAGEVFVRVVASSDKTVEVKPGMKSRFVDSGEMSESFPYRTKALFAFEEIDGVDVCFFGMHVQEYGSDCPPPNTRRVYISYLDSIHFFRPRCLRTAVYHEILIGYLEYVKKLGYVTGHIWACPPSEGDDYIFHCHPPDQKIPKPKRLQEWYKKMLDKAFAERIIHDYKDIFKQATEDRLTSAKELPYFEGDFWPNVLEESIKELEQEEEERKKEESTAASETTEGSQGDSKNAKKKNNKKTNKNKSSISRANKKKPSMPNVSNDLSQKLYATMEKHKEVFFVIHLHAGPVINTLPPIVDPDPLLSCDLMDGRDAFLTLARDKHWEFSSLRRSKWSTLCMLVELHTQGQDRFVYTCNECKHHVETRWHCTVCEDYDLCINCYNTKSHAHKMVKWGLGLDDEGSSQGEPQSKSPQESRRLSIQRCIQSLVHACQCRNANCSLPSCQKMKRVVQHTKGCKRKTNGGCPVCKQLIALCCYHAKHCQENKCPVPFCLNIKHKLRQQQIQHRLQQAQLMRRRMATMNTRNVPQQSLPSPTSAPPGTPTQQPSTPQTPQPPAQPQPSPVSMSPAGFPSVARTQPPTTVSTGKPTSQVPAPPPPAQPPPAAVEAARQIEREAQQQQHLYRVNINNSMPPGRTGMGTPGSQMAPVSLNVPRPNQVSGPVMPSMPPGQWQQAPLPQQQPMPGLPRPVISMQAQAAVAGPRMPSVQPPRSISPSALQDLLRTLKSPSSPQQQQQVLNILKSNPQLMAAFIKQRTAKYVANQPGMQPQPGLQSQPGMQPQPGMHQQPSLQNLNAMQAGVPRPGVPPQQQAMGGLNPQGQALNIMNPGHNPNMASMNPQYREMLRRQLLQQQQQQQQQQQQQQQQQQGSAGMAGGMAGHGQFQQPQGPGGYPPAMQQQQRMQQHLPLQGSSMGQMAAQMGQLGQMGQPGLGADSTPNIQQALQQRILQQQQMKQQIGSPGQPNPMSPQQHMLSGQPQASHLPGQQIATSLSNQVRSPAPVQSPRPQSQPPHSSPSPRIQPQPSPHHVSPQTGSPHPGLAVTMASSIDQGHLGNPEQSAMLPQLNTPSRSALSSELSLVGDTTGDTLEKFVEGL

Consider `CCC(=O)N1CCOc2c(cc(-c3ccc(OC)c(OC)c3)cc2OC[C@H]2CCCN(C)C2)C1` [I-CBP112, 1-[7-(3,4-dimethoxyphenyl)-9-{[(3S)-1-methylpiperidin-3-yl]-methoxy}-2,3,4,5-tetrahydro-1,4-benzoxazepin-4-yl]propan-1-one], for which the EC50 at p300 is 11 ± 3 µM; at CBP, ~2 µM.
